{"source": "patent US20170165286A1", "about": "“COMPOSITIONS AND METHODS FOR TREATING DIABETES AND LIVER DISEASES” (Cempra Pharmaceuticals, Inc., priority 2014, published 2017)", "key": {"STAM mice": {"tested_on": "STAM mice", "experiment": "NASH-HCC (STAM) model: body weight, liver weight, macroscopic liver appearance", "assay_type": "in vivo", "conditions": "for Liver Weight / Liver-to-body Weight Ratio: 5-9 wks", "procedure": "NASH-HCC (STAM™) Model. C57BL/6 (15-day-pregnant female) mice are obtained from Charles River Laboratories Japan (Kanagawa, Japan). Male pups are selected for the study. NASH is induced in male mice by a single subcutaneous injection of 200 μg streptozotocin (STZ, Sigma-Aldrich, USA) solution 2 days after birth, followed by feeding a HFD (57 kcal % fat, cat#: HFD32, CLEA Japan, Japan) beginning at 4 weeks of age. At 5 weeks of age, mice are divided into a control group and one or more treated group (generally 8 mice per group). Animals are sacrificed at 9 weeks of age, and biochemical, histological, and gene expression analyses are performed.\nAll animals used in the study are housed and cared for in accordance with local regulations. Test animals are maintained in an SPF facility under controlled conditions of temperature (23±2° C.), humidity (45±10%), lighting (12-hour artificial light and dark cycles; light from 8:00 to 20:00) and air exchange. A high pressure (20±4 Pa) is maintained in the experimental room. Test animals are housed in polycarbonate cages KN-600 (Natsume Seisakusho, Japan) with a maximum of 4 mice per cage. Sterilized PULMASμ (Material Research Center, Japan) are used for bedding and replaced once a week. Sterilized solid HFD is provided ad libitum, being placed in the metal lid on top of the cage. Pure water is provided ad libitum from a water bottle equipped with a rubber stopper and a sipper tube. Water bottles are replaced once a week, cleaned and sterilized in autoclave and reused.\nGenerally, elevated NAFLD activity score (NAS)≧5, steatosis, and elevated ALT is evident by week 6, NASH is evident by week 7, perisinusoidal fibrosis is evident by week 9, nodules are evident by week 12, and HCC is evident by week 16. It is to be understood herein that perisinusoidal fibrosis in mice is the model for NASH in humans (Fujii et al., Med Mol Morphol 46: 141-152 (2013)).\nDuring weeks 5-9 (starting at day 35±2), test compound is administered (generally orally) at various doses diluted to 10 mL/kg and according to various dosing protocols to treatment groups (8 mice each) while a second group (8 mice) is administered vehicle only. Animals are sacrificed at 9 weeks.\nIllustrative dose response test groups. Group 1-Normal. Eight normal mice are fed with a normal diet ad libitum without any treatment until 9 weeks of age. Group 2-Vehicle. Eight NASH mice are orally administered vehicle (0.5% w/v methylcellulose+0.2% Tween®80) in a volume of 10 mL/kg twice daily from 5 to 9 week of age. Group 3-solithromycin 5 mg/kg. Eight NASH mice are orally administered vehicle supplemented with solithromycin at a dose of 5 mg/kg in the morning and the vehicle in the evening (5 mg/kg/day) from 5 to 9 weeks of age. Group 4-solithromycin 10 mg/kg. Eight NASH mice are orally administered vehicle supplemented with solithromycin at a dose of 10 mg/kg twice daily (20 mg/kg/day) from 5 to 9 weeks of age. Group 5-solithromycin 25 mg/kg. Eight NASH mice are orally administered vehicle supplemented with solithromycin at a dose of 25 mg/kg twice daily (50 mg/kg/day) from 5 to 9 weeks of age. Group 6-solithromycin 50 mg/kg. Eight NASH mice are orally administered vehicle supplemented with solithromycin at a dose of 50 mg/kg once daily (50 mg/kg/day) from 5 to 9 weeks of age."}, "[1]": {"experiment": "Phase 1 study in subjects with hepatic impairment: safety", "assay_type": "in vivo, humans", "conditions": "for Number of subjects reporting treatment-emergent AEs: 800 mg Day 1, 400 mg Days 2-5", "procedure": "Safety of solithromycin in humans with hepatic insufficiency.\nSafety and Pharmacokinetics of solithromycin in Subjects with Hepatic Impairment. The safety, pharmacokinetics (PK), and protein binding of solithromycin was evaluated in subjects with mild, moderate, and severe hepatic impairment compared to healthy subjects with normal hepatic function (matched for age, weight, and gender). The evaluation was performed in a Phase 1, open-label, multiple-dose study in subjects with mild (Child-Pugh Class A), moderate (Child-Pugh Class B), and severe (Child-Pugh Class C) hepatic impairment and healthy matched control subjects with normal hepatic function. All subjects received a once-daily dose of 800 mg on Day 1 followed by 400 mg on Days 2 through 5.\n33 subjects were enrolled: 8 with mild impairment (mean Child-Pugh score 5.625), 8 with moderate impairment (mean Child-Pugh score 7.375), 8 with severe impairment (mean Child-Pugh score 10.625), and 9 healthy controls with normal hepatic function. One subject, a healthy control, discontinued study drug after 2 doses due to a rash; all other subjects (n=32) completed the study. Overall, the number of subjects reporting treatment-emergent AEs in the hepatic impaired cohorts (mild n=1, moderate n=4, severe n=4) was no greater than in the control group (n=4)."}, "[2]": {"conditions": "5 mg/kg q.d. oral, listed as Solithromycin, 5 mg/kg"}, "[3]": {"conditions": "10 mg/kg b.i.d. oral, listed as Solithromycin, 10 mg/kg"}, "[4]": {"conditions": "25 mg/kg b.i.d. oral, listed as Solithromycin, 25 mg/kg"}}, "data": [{"smiles": "CC[C@H]1OC(=O)[C@@](C)(F)C(=O)[C@H](C)[C@@H](O[C@@H]2O[C@H](C)C[C@H](N(C)C)[C@H]2O)[C@](C)(OC)C[C@@H](C)C(=O)[C@H](C)[C@H]2N(CCCCn3cc(-c4cccc(N)c4)nn3)C(=O)O[C@]12C", "note": "[solithromycin]", "values": [{"measurement": "Liver Weight", "setting": "STAM mice; 5 mg/kg q.d. oral, 5 mg/kg", "value": "no statistically significant difference"}, {"measurement": "Liver-to-body Weight Ratio", "setting": "STAM mice; 5 mg/kg q.d. oral, 5 mg/kg", "value": "no statistically significant differences"}, {"measurement": "Liver Weight", "setting": "STAM mice; [2]", "value": "1335 ± 185", "unit": "mg"}, {"measurement": "Liver-to-body Weight Ratio", "setting": "STAM mice; [2]", "value": "7.0 ± 0.8", "unit": "%"}, {"measurement": "Liver Weight", "setting": "STAM mice; 10 mg/kg b.i.d. oral, 10 mg/kg", "value": "significant reductions"}, {"measurement": "Liver-to-body Weight Ratio", "setting": "STAM mice; 10 mg/kg b.i.d. oral, 10 mg/kg", "value": "no statistically significant differences"}, {"measurement": "Liver Weight", "setting": "STAM mice; [3]", "value": "1187 ± 134", "unit": "mg"}, {"measurement": "Liver-to-body Weight Ratio", "setting": "STAM mice; [3]", "value": "6.7 ± 0.8", "unit": "%"}, {"measurement": "Liver Weight", "setting": "STAM mice; 25 mg/kg b.i.d. oral, 25 mg/kg", "value": "significant reductions"}, {"measurement": "Liver-to-body Weight Ratio", "setting": "STAM mice; 25 mg/kg b.i.d. oral, 25 mg/kg", "value": "significant decrease"}, {"measurement": "Liver Weight", "setting": "STAM mice; [4]", "value": "1087 ± 97", "unit": "mg"}, {"measurement": "Liver-to-body Weight Ratio", "setting": "STAM mice; [4]", "value": "5.9 ± 0.7", "unit": "%"}, {"measurement": "Liver Weight", "setting": "STAM mice; 50 mg/kg q.d. oral", "value": "1242 ± 141", "unit": "mg"}, {"measurement": "Liver-to-body Weight Ratio", "setting": "STAM mice; 50 mg/kg q.d. oral", "value": "6.0 ± 0.7", "unit": "%"}, {"measurement": "Mean body weight on the day of sacrifice compared to vehicle group", "setting": "STAM mice; Group 4 (10 mg/kg b.i.d.)", "value": "significant decrease"}, {"measurement": "Mean body weight on the day of sacrifice compared to vehicle group", "setting": "STAM mice; Groups 3, 5, 6", "value": "no significant differences"}, {"measurement": "Macroscopic liver appearance (coloration)", "setting": "STAM mice; as a function of increasing dose", "value": "substantially less yellow in color"}, {"measurement": "Most commonly reported AEs", "setting": "[1]; all cohorts", "value": "mild diarrhea and mild headache"}, {"measurement": "Mean changes from baseline in liver function tests on Day 8", "setting": "[1]; any cohort, after 5 days of administration", "value": "not clinically significant"}, {"measurement": "ALT mean (±SD) change from baseline on Day 8", "setting": "[1]; control cohort", "value": "2.6±4.47", "unit": "IU/L"}, {"measurement": "AST mean (±SD) change from baseline on Day 8", "setting": "[1]; control cohort", "value": "−0.6±2.92", "unit": "IU/L"}, {"measurement": "Direct bilirubin mean (±SD) change from baseline on Day 8", "setting": "[1]; control cohort", "value": "0.00 ± 0.053", "unit": "mg/dL"}, {"measurement": "Number of subjects reporting treatment-emergent AEs", "setting": "[1]; healthy control group (9 enrolled)", "value": 4}, {"measurement": "Safety compared to healthy controls", "setting": "[1]; humans with hepatic impairment, same doses", "value": "no significant differences in safety"}, {"measurement": "Tolerability", "setting": "[1]; humans with mild, moderate and severe hepatic impairment, doses as high as 800 mg", "value": "well tolerated"}, {"measurement": "ALT mean (±SD) change from baseline on Day 8", "setting": "[1]; mild hepatic impairment", "value": "4.0±8.00", "unit": "IU/L"}, {"measurement": "AST mean (±SD) change from baseline on Day 8", "setting": "[1]; mild hepatic impairment", "value": "0.4±5.93", "unit": "IU/L"}, {"measurement": "Direct bilirubin mean (±SD) change from baseline on Day 8", "setting": "[1]; mild hepatic impairment", "value": "0.00 ± 0.076", "unit": "mg/dL"}, {"measurement": "Number of subjects reporting treatment-emergent AEs", "setting": "[1]; mild hepatic impairment (8 enrolled)", "value": 1}, {"measurement": "ALT mean (±SD) change from baseline on Day 8", "setting": "[1]; moderate hepatic impairment", "value": "7.8±6.92", "unit": "IU/L"}, {"measurement": "AST mean (±SD) change from baseline on Day 8", "setting": "[1]; moderate hepatic impairment", "value": "0.1±10.56", "unit": "IU/L"}, {"measurement": "Direct bilirubin mean (±SD) change from baseline on Day 8", "setting": "[1]; moderate hepatic impairment", "value": "0.03 ± 0.046", "unit": "mg/dL"}, {"measurement": "Number of subjects reporting treatment-emergent AEs", "setting": "[1]; moderate hepatic impairment (8 enrolled)", "value": 4}, {"measurement": "ALT mean (±SD) change from baseline on Day 8", "setting": "[1]; severe hepatic impairment", "value": "6.3±14.61", "unit": "IU/L"}, {"measurement": "AST mean (±SD) change from baseline on Day 8", "setting": "[1]; severe hepatic impairment", "value": "5.8±22.44", "unit": "IU/L"}, {"measurement": "Direct bilirubin mean (±SD) change from baseline on Day 8", "setting": "[1]; severe hepatic impairment", "value": "0.04 ± 0.207", "unit": "mg/dL"}, {"measurement": "Number of subjects reporting treatment-emergent AEs", "setting": "[1]; severe hepatic impairment (8 enrolled)", "value": 4}]}]}
